molecular target: T1, solubilized Aβ40 (Homo sapiens, UniProt P05067); assay: Mass spectroscopy (MS) assay of binding to soluble Aβ40; set-up: key: “+” = active; “−” = inactive; settings: 200 μM test compound, 20 μM solubilized Aβ40, 20% ethanol, pH 7.4, electrospray ionization MS
T1 construct: 20 μM of solubilized Aβ40
Experimental: Test compounds were purchased from commercial sources or synthesized and screened by mass spectroscopy (“MS”) assay, which gives data on the ability of compounds to bind to an amyloid protein. Samples were prepared as aqueous solutions containing 20% ethanol, 200 μM of a test compound and 20 μM of solubilized Aβ40. The pH value of each sample was adjusted to 7.4 (±0.2) by addition of 0.1% aqueous sodium hydroxide. The solutions were then analyzed by electrospray ionization mass spectroscopy using a Waters ZQ 4000 mass spectrometer. Samples were introduced by direct infusion at a flow-rate of 25 μL/min within 2 hr. after sample preparation. The source temperature was kept at 70° C. and the cone voltage was 20 V for all the analysis. Data were processed using Masslynx 3.5 software. The MS assay gives data on the ability of compounds to bind to Aβ, whereas the ThT, EM and CD assays give data on inhibition of fibrillogenesis.

T1 sequence (P05067 672-711 limits assumed): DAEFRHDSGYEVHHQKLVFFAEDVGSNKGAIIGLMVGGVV

MS Assay	SMILES
+	COc1ccc(C(=N)NCCN2CCN=C2c2ccc(OC)cc2)cc1 [Compound 153]
−	N=C(N)c1ccc(C(=O)NCCN(CCNC(=O)c2ccc(C(=N)N)cc2)C(=O)c2ccc(C(=N)N)cc2)cc1 [Compound 155]
−	N/C(=N\O)c1ccc(OCCCCCCCCCNO)cc1 [Compound 147]
+	COc1ccc(C(=N)NCCCCCNC(=N)c2ccc(OC)cc2)cc1 [Compound 154]
+	CCOC(=O)c1ccc(C(=O)NCCCCCCCCCNC(=O)c2ccc(C(=N)N)cc2)cc1 [Compound 149]
+	CCOC(=O)c1ccc(C(=O)NCCCCCCCNC(=O)c2ccc(C(=N)N)cc2)cc1 [Compound 148]
+	N=C(NCCCCCNC(=N)c1ccc(Br)cc1)c1ccc(Br)cc1 [Compound 150]
−	N=C(N)c1ccc(S(=O)(=O)NCCCCCCCCCNS(=O)(=O)c2ccc(C(=N)N)cc2)cc1 [Compound 158]
+	N=C(NCCCCCCCCCNC(=N)c1ccc(Br)cc1)c1ccc(Br)cc1 [Compound 151]
−	COc1ccc(C(=N)NCCCCCCCCCNC(=N)c2ccc(OC)cc2)cc1 [Compound 152]
−	Nc1ccc(OCCCCCOc2ccc(NC3=NCCN3)cc2)cc1 [Compound 156]
+	N=C(NCCCCCCCN)c1ccc(Br)cc1 [Compound 145]
+	N=C(NCCCCCCCNC(=O)c1ccc(Br)cc1)c1ccc(Br)cc1 [Compound 146]
